Reference: US9957231B2, “Iodine(II)-mediated radiofluorination” (The General Hospital Corporation, priority 2014, dated 2018)

Key:
[1] = Stability of biphenyl spiroiodine(III) ylide precursors; format: physicochemical
Description: Experiments with derivatives of Meldrum's acid 8a and barbituric acid 9a, based on a challenging electron-neutral biphenyl substrate, provided radiochemical conversions of 47% and 53%, respectively. Analogs incorporating substituents on the nitrogen atoms of […] were relatively unstable at room temperature, and analogues with alkyl groups other than methyl on the quaternary carbon of diesters 9b-d were not crystalline. […] Cyclobutyl 10b and cyclopentyl 10c groups provided increased conversions, 70% and 85%, respectively.

[2] = Sterility testing in TSB and FTM media; conditions: TSB 20-25° C., FTM 30-35° C., 14 days
Experimental: Sterility testing was performed post-release and must be started within 30 hours from end of synthesis. [^18F]FPEB sample was inoculated into Trypitcase Soy Broth (TSB) and Fluid Thioglycollate Medium (FTM) media tubes. TSB tubes were incubated at 20-25° C. and FTM tubes were incubated at 30-35° C. for 14 days and must be free of culture growth after 14 days.

[3] = pH assay of the [^18F]FPEB dose with pH indicator paper; format: physicochemical; conditions: formulated dose, n = 3
Experimental: The pH of [^18F]FPEB was determined by applying a few drops of the dose to pH indicator paper. Match the reference color and the pH value conformed to our release specifications (pH=4.5-8.5).

Q: For `O=C1OC2(CCCCC2)OC(=O)C1=Ic1ccc(-c2ccccc2)cc1` [Example 10a, 1,5-dioxaspiro[5.5]undecane-2,4-dion-[1,1′biphenyl-4-iodonium]ylide], which stability of precursor ([1]; room temperature / solid state) is on record?
A: The stability of precursor was “stable crystalline solid”.

Q: For `O=C1OC2(CCCC2)OC(=O)C1=Ic1ccc(-c2ccccc2)cc1` [Example 10c, 6,10-dioxaspiro[4.5]decane-7,9-dion-[1,1′-biphenyl-4-iodonium]ylide], which “thermal stability under the radiolabelling conditions” value ([1]; DMF, 120° C., 10 min) is on record?
A: The value was “good thermal stability”.

Q: Which melting point does the source give for `N#Cc1cc(C#Cc2ccccn2)cc(I=C2C(=O)OC3(CCCC3)OC2=O)c1` [Example 31, 3-((7,9-dioxo-6,10-dioxaspiro[4.5]decan-8-ylidene)-1.3-iodanyl)-5-(pyridin-2-ylethynyl)benzonitrile] here?
A: Its melting point is 145 to 150 °C (dec.).

Q: Which melting point does the source give for `NC(=O)c1cc(F)cc(C#Cc2ccccn2)c1` [Example 32, 3-fluoro-5-(pyridin-2-ylethynyl)benzamide] here?
A: Its melting point is 175 to 176 °C.

Q: Which results are given for `N#Cc1cc([18F])cc(C#Cc2ccccn2)c1` [[^18F]FPEB, [^18F]3-fluoro-5-(pyridin-2-ylethynyl)benzonitrile]?
A: Sterility Testing [2]: No evidence of growth at 14 days post; pH Assay [3]: 5-5.5
